Measurements from patent US7417156B2, “Orally active, antimalarial, anticancer, artemisinin-derived trioxane dimers” (Johns Hopkins University, priority 2002, dated 2008).

Columns and labels:
786-0 = experiment: NCI 60 cell line panel screen (SRB); assay type: cell-based, human
U251 = experiment: NCI 60 cell line panel screen (SRB); assay type: cell-based, human
NCI-H322M = assay type: cell-based
OVCAR-3 = experiment: NCI 60 cell line panel screen (SRB); assay type: cell-based, human
HCT-116 = experiment: NCI 60 cell line panel screen (SRB); assay type: cell-based, human
MDA-MB-435 = experiment: NCI 60 cell line panel screen (SRB); assay type: cell-based, human; conditions: Breast Cancer, MDA-MB-435
HCT-15 = experiment: NCI 60 cell line panel screen (SRB); assay type: cell-based, human
IGROVI = experiment: NCI 60 cell line panel screen (SRB); assay type: cell-based, human
RPMI-8226 = experiment: NCI 60 cell line panel screen (SRB); assay type: cell-based, human
T-47D = experiment: NCI 60 cell line panel screen (SRB); assay type: cell-based, human
MALME-3M = experiment: NCI 60 cell line panel screen (SRB); assay type: cell-based, human; conditions: MALME-3M (Melanoma)
ACHN = experiment: NCI 60 cell line panel screen (SRB); assay type: cell-based, human; conditions: ACHN (Renal Cancer)
M14 = experiment: NCI 60 cell line panel screen (SRB); assay type: cell-based, human
NCI-H460 = experiment: NCI 60 cell line panel screen (SRB); assay type: cell-based, human
60 cell line panel = assay type: cell-based
COLO 205 = experiment: NCI 60 cell line panel screen (SRB); assay type: cell-based, human
KM12 = experiment: NCI 60 cell line panel screen (SRB); assay type: cell-based, human
PC-3 = experiment: NCI 60 cell line panel screen (SRB); assay type: cell-based, human
UO-31 = experiment: NCI 60 cell line panel screen (SRB); assay type: cell-based, human; conditions: Renal Cancer, UO-31
SNB-19 = experiment: NCI 60 cell line panel screen (SRB); assay type: cell-based, human
OVCAR-5 = experiment: NCI 60 cell line panel screen (SRB); assay type: cell-based, human
SK-MEL-2 = experiment: NCI 60 cell line panel screen (SRB); assay type: cell-based, human
TK-10 = experiment: NCI 60 cell line panel screen (SRB); assay type: cell-based, human; conditions: Renal Cancer, TK-10

## CC(=O)O[C@H]1C(=O)[C@@]2(C)[C@H]([C@H](OC(=O)c3ccccc3)[C@]3(O)C[C@H](OC(=O)[C@H](O)[C@@H](NC(=O)c4ccccc4)c4ccccc4)C(C)=C1C3(C)C)[C@]1(OC(C)=O)CO[C@@H]1C[C@@H]2O [Paclitaxel, paclitaxel, reference compound]
786-0; 786-0 (Renal Cancer), LC50: PG=−50
  Log10LC50: >−4.00 log10M
786-0; 786-0 (Renal Cancer), TGI: PG=0
  Log10TGI50: >−4.00 log10M
786-0; Renal Cancer, 786-0
  Log10GI50: −8.01
U251; CNS Cancer, U251
  Log10GI50: −11.29
U251; U251 (CNS Cancer), LC50: PG=−50
  Log10LC50: −4.15 log10M
U251; U251 (CNS Cancer), TGI: PG=0
  Log10TGI50: −4.32 log10M
NCI-H322M; NCI-H322M (Non-Small Cell Lung Cancer), LC50: PG=−50
  Log10LC50: >−4.00 log10M
NCI-H322M; NCI-H322M (Non-Small Cell Lung Cancer), TGI: PG=0
  Log10TGI50: −4.46 log10M
NCI-H322M; Non-Small Cell Lung Cancer, NCI-H322M
  Log10GI50: −10.12
OVCAR-3; OVCAR-3 (Ovarian Cancer), LC50: PG=−50
  Log10LC50: >−4.00 log10M
OVCAR-3; OVCAR-3 (Ovarian Cancer), TGI: PG=0
  Log10TGI50: −4.55 log10M
OVCAR-3; Ovarian Cancer, OVCAR-3
  Log10GI50: −10.40
HCT-116; Colon Cancer, HCT-116
  Log10GI50: <−13.00
HCT-116; HCT-116 (Colon Cancer), LC50: PG=−50
  Log10LC50: >−4.00 log10M
HCT-116; HCT-116 (Colon Cancer), TGI: PG=0
  Log10TGI50: −4.82 log10M
MDA-MB-435
  Log10GI50: <−13.00
HCT-15; Colon Cancer, HCT-15
  Log10GI50: −6.37
HCT-15; HCT-15 (Colon Cancer), LC50: PG=−50
  Log10LC50: >−4.00 log10M
HCT-15; HCT-15 (Colon Cancer), TGI: PG=0
  Log10TGI50: >−4.00 log10M
IGROVI; IGROVI (Ovarian Cancer), LC50: PG=−50
  Log10LC50: >−4.00 log10M
IGROVI; IGROVI (Ovarian Cancer), TGI: PG=0
  Log10TGI50: −4.19 log10M
IGROVI; Ovarian Cancer, IGROVI
  Log10GI50: −8.61
RPMI-8226; Leukemia, RPMI-8226
  Log10GI50: <−13.00
RPMI-8226; RPMI-8226 (Leukemia), LC50: PG=−50
  Log10LC50: >−4.00 log10M
RPMI-8226; RPMI-8226 (Leukemia), TGI: PG=0
  Log10TGI50: >−4.00 log10M
T-47D; Breast Cancer, T-47D
  Log10GI50: −9.81
T-47D; T-47D (Breast Cancer), LC50: PG=−50
  Log10LC50: >−4.00 log10M
MALME-3M; LC50: PG=−50
  Log10LC50: −4.11 log10M
MALME-3M; TGI: PG=0
  Log10TGI50: −4.46 log10M
ACHN; LC50: PG=−50
  Log10LC50: −4.45 log10M
ACHN; TGI: PG=0
  Log10TGI50: −4.90 log10M
M14; M14 (Melanoma), LC50: PG=−50
  Log10LC50: −4.13 log10M
M14; M-14 (Melanoma), TGI: PG=0
  Log10TGI50: −4.62 log10M
M14; Melanoma, M14
  Log10GI50: −11.73
NCI-H460; NCI-H460 (Non-Small Cell Lung Cancer), LC50: PG=−50
  Log10LC50: >−4.00 log10M
NCI-H460; NCI-H460 (Non-Small Cell Lung Cancer), TGI: PG=0
  Log10TGI50: −4.92 log10M
NCI-H460; Non-Small Cell Lung Cancer, NCI-H460
  Log10GI50: −12.16
60 cell line panel
  Log10GI50 Delta: −10.15
  Log10GI50 Range: 8.00
60 cell line panel; 60 cell line panel
  Log10LC50 Delta: −4.06
  Log10LC50 Range: .045
  Log10TGI50 Delta: −4.54
  Log10TGI50 Range: 7.20
COLO 205; COLO 205 (Colon Cancer), LC50: PG=−50
  Log10LC50: >−4.41 log10M
COLO 205; Colon Cancer, COLO 205
  Log10GI50: −11.07
KM12; Colon Cancer, KM12
  Log10GI50: −11.43
KM12; KM12 (Colon Cancer), LC50: PG=−50
  Log10LC50: >−4.00 log10M
KM12; KM12 (Colon Cancer), TGI: PG=0
  Log10TGI50: −4.36 log10M
PC-3; PC-3 (Prostate Cancer), LC50: PG=−50
  Log10LC50: >−4.00 log10M
PC-3; PC-3 (Prostate Cancer), TGI: PG=0
  Log10TGI50: >−4.00 log10M
PC-3; Prostate Cancer, PC-3
  Log10GI50: −10.85
UO-31
  Log10GI50: −6.09
SNB-19; CNS Cancer, SNB-19
  Log10GI50: −8.98
SNB-19; SNB-19 (CNS Cancer), LC50: PG=−50
  Log10LC50: >−4.00 log10M
SNB-19; SNB-19 (CNS Cancer), TGI: PG=0
  Log10TGI50: >−4.00 log10M
OVCAR-5; OVCAR-5 (Ovarian Cancer), LC50: PG=−50
  Log10LC50: >−4.00 log10M
OVCAR-5; OVCAR-5 (Ovarian Cancer), TGI: PG=0
  Log10TGI50: −4.92 log10M
OVCAR-5; Ovarian Cancer, OVCAR-5
  Log10GI50: −9.38
SK-MEL-2; Melanoma, SK-MEL-2
  Log10GI50: −9.53
SK-MEL-2; SK-MEL2 (Melanoma), LC50: PG=−50
  Log10LC50: >−4.00 log10M
TK-10
  Log10GI50: −7.89
